From US8614103B2, “Compositions and methods for treating sphingosine-1-phosphate (S1P) related ocular diseases and conditions” (Lpath, Inc., priority 2006, dated 2013)

Legend:
[1] = system: human conjunctiva fibroblasts; experiment: PAI-1 expression in conjunctiva fibroblasts; format: cell-based
Excerpt: Collagen is one of the primary structural proteins that supports all tissues in the body and is one of the main components of scar tissue. In the non-pathological setting, total collagen content within tissue is maintained via a balance between collagen production by fibroblasts and degradation by certain enzymes. A number of disorders that involve increased levels of scar tissue result, in part, from physiological and molecular processes that inhibit degradation of collagen that is need for scar formation. It was hypothesized that the ability of S1P to promote scar tissue formation may result from its ability to inhibit collagen degradation, thereby leading to net increases in scar tissue within organs. Therefore, the effects of S1P on expression of plasminogen activator inhibitor (PAI-1) in human conjunctiva fibroblasts were examined.

[2] = system: human conjunctiva fibroblasts; experiment: α-SMA expression in conjunctiva fibroblasts; format: cell-based; conditions: only at this concentration
Excerpt: (§1) In many of these disorders, circulating growth factors and chemokines promote the transformation of normal ocular cells into fibrocontractile, scar tissue-producing cells that have been termed “myofibroblasts”. Normally, myofibroblasts are responsible for tissue repair as part of the wound healing response following injury. However altered number and function of myofibroblasts are implicated in diseases characterized by pathological scar tissue formation in the liver, skin, lung, kidney, heart and eyes. In the eye, transformation of retinal pigmented epithelial (RPE) cells to a myofibroblast phenotype is linked to formation of fibro-contractile membranes which cause retinal detachment and subsequent vision impairment. In addition, myofibroblast transformation of ocular fibroblasts can result in abnormal scar tissue production after eye injury leading to subsequent vision loss. Although many of the circulating protein factors in the eye that promote myofibroblast formation have been identified, nothing is known regarding the role of lysolipids such as S1P in this process. Therefore, we examined the effects of S1P on myofibroblast transformation of several human ocular cell lines.
(§2) In these experiments, the ability of S1P to promote α-SMA expression differed in a concentration dependent manner between the retinal pigmented epithelial cells and conjunctiva fibroblasts. […]

[3] = system: human retinal pigmented epithelial cells; experiment: α-SMA expression in retinal pigmented epithelial cells; format: cell-based; conditions: back to basal levels at 10 μM
Excerpt: as §1, §2

[4] = system: COLO 205 tumor; experiment: SC COLO205 colorectal tumor xenograft in nude NCr mice; format: in vivo, mouse; conditions: LT1009 50 mg/kg ip q3d; Avastin 40 mg/kg iv q7d; Paclitaxel 15 mg/kg iv q1d×5
Procedure: Nude mice were implanted sc near the right flank with one fragment per mouse of COLO 205 tumor from an in vivo passage. All treatments were initiated the day when 60 mice in each experiment established tumors ranging in size from approximately 100 to 200 mm3. […] Avastin was administered iv at a dosage of 40 mg/kg/dose on a q7d schedule, injected in a volume of 0.1 mL/20 g body weight. Paclitaxel (positive control), was administered iv at a dosage of 15 mg/kg/dose on a q1d×5 schedule, injected in a volume of 0.1 mL/10 g body weight.
(§3) Animals were observed daily for mortality. Tumor dimensions and body weights were collected twice weekly starting with the first day of treatment and including the day of study termination. When the median tumor in the vehicle-treated control group in each study reached approximately 4,000 mg, the study was terminated. Tumors from each animal were harvested, wet weights were recorded, tumors were processed for determination of microvascular densities (MVD) by CD-31 staining. Tumor weights (mg) were calculated using the equation for an ellipsoid sphere (l×w^2)/2=mm^3, where l and w refer to the larger and smaller dimensions collected at each measurement and assuming unit density (1 mm^3=1 mg).

[5] = system: DU145 tumor; experiment: SC DU145 prostate tumor xenograft in nude NCr mice; format: in vivo, mouse; conditions: LT1009 50 mg/kg ip q2d; Avastin 20 mg/kg q4d; Paclitaxel 7.5 mg/kg q1d×5
Procedure: Nude mice were implanted sc near the right flank with one fragment per mouse of DU145 tumor from an in vivo passage. All treatments were initiated the day when 60 mice in each experiment established tumors ranging in size from approximately 100 to 200 mm^3. […] Paclitaxel and Avastin were administered iv and ip at a dosage of 7.5 mg/kg/dose and 20 mg/kg/dose, q1d×5 and q4d, respectively, injected in a volume of 0.1 mL/10 g body weight.
During the course of the study tumor growth was monitored by measuring the sc tumors on three axes and calculating the volume. At the end of the study final tumor weights and volumes were determined and then the mice were sacrificed, the tumors harvested. Microvascular densities (MVD) of the tumors were then determined by CD-31 staining.

[6] = system: HT29 tumor; experiment: SC HT29 colorectal tumor xenograft in nude NCr mice; format: in vivo, mouse; conditions: LT1009 50 mg/kg ip q2d; Avastin 20 mg/kg q4d; 5-FU 75 mg/kg q4d
Procedure: Nude mice were implanted sc near the right flank with one fragment per mouse of HT29 tumor from an in vivo passage. All treatments were initiated the day when 60 mice in each experiment established tumors ranging in size from approximately 100 to 200 mm^3. There were ten mice per treatment group. […] 75 mg/kg 5-FU and 20 mg/kg Avastin were administered ip and iv at a dosage of 75 mg/kg/dose and 20 mg/kg/dose, respectively, q4d, injected in a volume of 0.1 mL/10 g body weight.
as §3, with “recorded, and” for “recorded,”, “MVD” for “microvascular densities (MVD)”

Row | Molecule | PAI-1 expression [1] | concentration at which a significant increase in α-SMA expression was observed [2] | concentration at which a significant increase in α-SMA expression was observed [3] | Final Tumor Weights [4] | Final Tumor Weights [5] | % Reduction compared to Vehicle-Treated Mice [6] | Final Tumor Weights [6]
1 | CCCCCCCCCCCCC/C=C/[C@@H](O)[C@@H](N)COP(=O)(O)O [S1P, sphingosine-1-phosphate] | stimulates the PAI-1 expression in a dose-dependent manner | 10 µM | 0.001 µM |  |  |  | 
2 | Avastin: anti-angiogenic drug, bevacizumab (Avastin®, Genentech) |  |  |  | 1967.90 mg | 578 mg | 30% | 1927.44 mg
